According to patent publication US20090325992A1, “COMPOUND HAVING CYCLIC GROUP BOUND THERETO THROUGH SPIRO BINDING AND USE THEREOF” (ONO PHARMACEUTICAL CO., LTD., priority 2006, published 2009):
pIC50: −log10 of the molar value.

Experiments:
[1] = target: T1, CXCR4 (human T cell strain CEM cells) (Homo sapiens, UniProt P61073); assay: Inhibition of binding human SDF-1 to CEM cells (125I-SDF-1); settings: 4° C., 60 minutes
T1 construct: a human T cell strain in which CXCR4 is known to be expressed; endogenous in cells; host or cells: CEM cells (human T cell strain)
T1 sequence (P61073 whole entry): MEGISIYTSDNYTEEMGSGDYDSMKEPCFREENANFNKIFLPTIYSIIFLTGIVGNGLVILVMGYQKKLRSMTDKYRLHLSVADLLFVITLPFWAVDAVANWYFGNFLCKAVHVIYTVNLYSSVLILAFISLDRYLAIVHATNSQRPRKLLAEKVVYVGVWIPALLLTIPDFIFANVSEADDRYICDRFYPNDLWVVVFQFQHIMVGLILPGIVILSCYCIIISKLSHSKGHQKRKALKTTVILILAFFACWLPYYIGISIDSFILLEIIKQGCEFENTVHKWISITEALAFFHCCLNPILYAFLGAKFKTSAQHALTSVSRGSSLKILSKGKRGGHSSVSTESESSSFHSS
Procedure: Specifically, as a system of screening a compound that inhibits the binding between SDF-1 and CXCR4, for example a system of measuring the binding between iodine-labeled SDF-1 and a human T cell strain in which CXCR4 is known to be expressed is operable.
Study for Inhibition of Binding Human SDF-1 to CEM Cells
To human T cell strain CEM cells in a binding buffer (containing HEPES and BSA), the test compound and ^125I-SDF-1 (PerkinElmer) were added and the mixture was incubated at 4° C. for 60 minutes. The reacted CEM cells were rapidly filtrated with a GF/B membrane filter plate (Packard) to adsorb. The plate was washed with phosphate buffered saline (hereinafter abbreviated to PBS) three times and then dried. Microscint+20 (Packard) was added thereto. An amount of the radioactivity bound to the CEM cells was measured using Top Count (Packard) and inhibition (%) of the test compound was calculated according to the following equation:
Inhibition={(Et−Ea)/(Et−Ec)}×100 [Equation 1]
Et: Amount of radioactivity when the test compound is not added,
Ec: Amount of radioactivity when non-radioactive SDF-1 (Pepro Tech) is added in an amount of 1,000 times as much as ^125I-SDF-1 as a test compound, and
Ea: Amount of radioactivity when the test compound is added.

[2] = Measurement of maximum plasma level (Cmax) and stationary state distribution volume (Vss); settings: male, Crl:CD(SD), rat, iv, 1 mg/kg
Procedure: Measurement of Maximum Plasma Level (Cmax) and Stationary State Distribution Volume (Vss)
A compound to be evaluated is weighed, dissolved in WellSolve (trade name; manufactured by Celeste Corporation) which is heated to 60° C. and adjusted to 20 mg/mL; thereafter, the test compound is diluted by 10 times with distilled water for injection, and further diluted by 2 times with saline solution, by which intravenously administered solution is eventually made. A compound to be evaluated is dissolved in WellSolve which is heated to 60° C. and adjusted to 50 mg/mL; thereafter, the compound to be evaluated is diluted with distilled water for injection and adjusted to 1 mg/mL. Five compounds (one set) were mixed in the same amount and adjusted to final concentration of 0.2 mg/mL per one compound, by which orally administered solution is eventually made. […] The administration is conducted under fasting conditions; water is freely ingested. In the case of intravenous administration, a 0.35 mL of blood sample is taken from cervical vein by using Heparinized Syringe at 5 minutes, 15 minutes, 30 minutes, 1 hour, 2 hours, 4 hours, 6 hours, 8 hours, and 24 hours after administration. […] The obtained blood is stored in ice, and after centrifugation at 12,000 rpm for 3 minutes, blood plasma is fractionated. In the case of intravenous administration, the blood plasma sample preserved at a temperature of −80° C. is dissolved; inner standard solution (100 μL) and acetonitrile (2 mL) are added to the blood plasma sample (100 μL) and stirred, and the sample is centrifuged at 2,500 rpm for 10 minutes.
After the supernatant centrifuged is evaporated to dryness by means of a centrifugal concentrator, 67% dimethyl sulfoxide solution (150 μL) is added to the residue and dissolves them again and 20 μL of the solution is analyzed by means of LC/MS/MS.
Measurement device: Waters 2795 (manufactured by Waters Corporation) Analytical column: Unison UK-C18, 3.0 μm particle size, 2.0 mm×30 mm (manufactured by Imtakt Corporation) Analytical column temperature: Room temperature Flow rate: 200 μL/min Moving bed: 5 mM IPC-PFAA-7 solution/acetonitrile (9/1→1/9)
Measurement device: Quatro micro API (manufactured by Micromass Communications Inc.) Scan type: MPM
The monitor ion which was suitable for each sample was selected.
A portion of the compound to be intravenously administered was subjected to the following treatment. The blood plasma sample preserved at a temperature of −80° C. is dissolved; inner standard solution (50 μL) and acetonitrile (1 mL) are added to the blood plasma sample (50 μL) and stirred, and the sample is centrifuged at 3,000 rpm for 10 minutes. After the supernatant is evaporated to dryness by means of a centrifugal concentrator, the residue was redissolved in water/acetonitrile (1/1) and the solution is analyzed by means of LC/MS/MS under the following conditions.
Measurement device: 1200 series system (manufactured by Agilent Technologies) Analytical column: Asahipak OOD-50 2D, 2×150 mm (manufactured by Showa Denko K.K.) Analytical column temperature: Room temperature Moving bed: 5 mM IPC—PFAA-7 solution/acetonitrile (gradient) Flow rate: 200 μL/min

[3] = Artificial lipid membrane binding using Biacore S51 system; settings: for Value of binding response (RU): DOPA liposome, 50 μM compound, PBS/5% DMSO pH 7.4, 37° C., corrected value; for Determination (artificial lipid membrane binding): positive = corrected binding response 150 or more
Procedure: Artificial Lipid Membrane Binding Account by using Biacore® S51 System
10 mM of 1,2-dioleoyl-sn-glycero-3-phosphate monosodium salt (hereinafter abbreviated as DOPA) chloroform solution was evaporated to dryness by means of an aspirator, and 0.6 mL of PBS/5% dimethyl sulfoxide (hereinafter abbreviated as DMSO) was added. The chloroform solution was fully suspended by means of a vortex mixer, and the freezing and thawing were repeated for 5 times. Liposome was created by means of a liposome preparation instrument (manufactured by Avestin Inc.) and two syringes, and was diluted to 0.5 mM with PBS/5% DMSO just prior to immobilization.
(2) Measurement Compound Preparation
38 μl of 1×PBS is added to 2 μl of a DMSO solution (10 mM), and further the 360 μl of 1×PBS/5% DMSO was added and the 50 μM of final concentration in PBS/5% DMSO was prepared and measured.
All of the following analysis used Biacore® S51 system and the measurement conditions were set by Biacore S51 Control Soft.
The measurement temperature was set to be 37° C., and PBS/5% DMSO (pH 7.4 or 6.0) was used as a buffer. Series S Sensor Chip L1 was used for a sensor chip. DOPA was immobilized in one of the measuring spots on the sensor surface and the central spot was used as a reference.
Immobilization of liposome was conducted at a flow rate of 10 μL/min for about 3 minutes and then the compound was added at a flow rate of 30 μL/min and the interaction was measured. The measurement conditions are as follows:
Assay buffer: PBS/5% DMSO (pH 7.4) Measurement temperature: 37° C. Sensor chip: Series S Sensor Chip L1 Flow rate: 10 μL/min at the time of the liposome immobilization; 30 μL/min at the time of the measurement of interaction with the compound Regeneration: 20 mM CHAPS (3-[(3-cholamidopropyl)dimethylammonio]-1-propanesulfonate), isopropylalcohol/aqueous 50 mM sodium hydroxide solution=40/60 (volume ratio) mixture solution (60 seconds)
The data processing was conducted by means of method of Abdiche et al., (Analytical biochemistry, 328, 233-243 (2004)) by using Biacore S51 Evaluation Soft.
Regarding the value of binding response (RU) in which the value of reference was subtracted, it was divided by a sample molecular weight after minute error of the DMSO concentration included in the sample solution was corrected. In addition, the value obtained here was divided by an amount of capture at the time of the cycle because the value obtained here was proportional to the amount of capture of the liposome and the value was multiplied by a million to be considered as a corrected value (Corrected value=1,000,000×RU (test compound)/molecular quantity (test compound) RU (liposome)).
The compound wherein a value of the binding response after the correction was 150 or more was determined as positive.

[4] = system: CHL/IU (cell line derived from a Chinese hamster lung); assay: Phospholipidosis detecting system using fluorescent labeling phospholipid analog (NBD-PE); assay type: cell-based; settings: for Rate of increase of phospholipid accumulation (%) (compound dose: 200 μM): CHL/IU cells, compound dose 200 μM, about 48 hours, relative to NBD-PE control; for Determination (phospholipidosis, NBD-PE system): positive = 25% or more of the maximum increase rate of amiodarone
Procedure: Investigation with Phospholipidosis Detecting System using Fluorescent Labeling Phospholipidosis Analog under Severity Condition (1) Phospholipid Accumulation Measurement 100 μL/well as required (1 dose 2 wells) of cell suspension of CHL/IU (cell line derived from a Chinese hamster lung) (7×10^4 cells/mL) prepared by MEM (minimum essential medium) culture medium was added to a 96-well plate (96-well clear-bottom plate), and cultured for about 24 hours. After culture, the supernatant of the 96-well plate was removed, and the 100 μL/well compounds of each concentration dissolved and suspended in an MEM including 25 μmol/L nitrobenzoxadiazole dipalmitoyl phosphatidylethanolamine (NBD-PE) (hereinafter abbreviated as a NPD-PE medium) were added and treated for about 48 hours. The treatment concentrations of each compound were set to be 5, 50, 100 and 200 μM. The positive control substance was set to be amiodarone hydrochloride, and the treatment concentrations were set to be 1.25, 2.5, 5, 10 and 20 μM. In addition, 5-well untreated controls (only MEM) and 5-well NBD-PE controls (made by means of adding a 1/100 amount of DMSO to the NBD-PE culture medium) were set per compound, and cultured in the same manner. After finishing the culture, the cultures were washed twice with phosphate buffered saline (hereinafter abbreviated as PBS) (−) 100 μL/well, and the MEM (100 μL) was added to all of the treatment wells including two empty wells for WST-1 background controls and cultured for about a half hour. The fluorescence intensities of each well were measured by using a microplate reader (manufactured by Molecular Devices Inc., SPECTRA max M2; the excitation wavelength 485 nm/fluorescence wavelength 535 nm). (2) Analysis Using the average values of each dose×2 wells, a phospholipid increase rate (%) to the NBD-PE control was calculated by using the following calculating formula: Rate of increase of phospholipid accumulation (%)=100×{(test compound fluorescence intensity−non-treated control fluorescence intensity)/(NBD-PE control fluorescence intensity−non-treated control fluorescence intensity)} [Equation 2] (3) Cytotoxicity Assay 96-well plate measured in the phospholipid accumulation measurement was measured by means of Plate Reader (manufactured by Molecular Devices Inc., SPECTRA max M2) with the main wavelength of 450 nm and the correct wavelength of 690 nm to calculate a Pre value. An amount of 5 μL/well of Premix WS T-1 was added to each of the 96-hole plates by which Pre measurement was conducted. After culture for 2 to 4 hours, the 96-well plate was measured as well as the Pre measurement to calculate an Aft value. Then, the background control value was subtracted from the each measured value. A value which was calculated by subtracting the Pre value from the Aft value was used, then the cell growth rate (%) was calculated by using the following calculating formula: Cell growth rate (%)=100×[(test substance OD)/(NBD-PE control OD)] [Equation 3] (4) Determination A test dose that indicated value of 25% or more of the maximum phospholipid accumulation increase rate of amiodarone which was the positive control was determined as positive. In addition, the dose whose cell growth rate was equal to or less than 50% in the cytotoxicity assay was not used for determination of existence or nonexistence of a phospholipidosis inductive effect.

| SMILES | pIC50 [1] | Vd [2] [L/kg] | Value of binding response (RU) [3] [RU] | Determination (artificial lipid membrane binding) [3] | Rate of increase of phospholipid accumulation (%) (compound dose: 200 μM) [4] | Determination (phospholipidosis, NBD-PE system) [4] |
| --- | --- | --- | --- | --- | --- | --- |
| COC(=O)Cc1ccc(CN(Cc2ncc[nH]2)Cc2nccn2CCCN2CCC3(CCN(CC(C)C)CC3)C2)cc1 [Example 21(4), Methyl (4-{[(1H-imidazol-2-ylmethyl)({1-[3-(8-isobutyl-2,8-diazaspiro[4.5]deca-2-yl)propyl]-1H-imidazol-2-yl}methyl)amino]methyl}phenyl)acetate] | 8.13 | – | – | – | – | – |
| CC(C)CN1CCC2(CC1)CCN(CCCn1ccnc1CN(Cc1ccc(CC(=O)O)cc1)Cc1ncc[nH]1)C2 [Example 22(4), (4-{[(1H-imidazol-2-ylmethyl)({1-[3-(8-isobutyl-2,8-diazaspiro[4.5]deca-2-yl)propyl]-1H-imidazol-2-yl}methyl)amino]methyl}phenyl)acetic acid] | 7.68 | 1.1 | 23.4 | Negative | 16 | Negative |
| CCC(CC)N1CCC2(CCN(CCCn3ccnc3CN(CCCC(=O)O)Cc3ncc[nH]3)C2)CC1 [Example 25(1), 4-{[(1-{3-[8-(1-ethylpropyl)-2,8-diazaspiro[4.5]deca-2-yl]propyl}-1H-imidazol-2-yl)methyl](1H-imidazol-2-ylmethyl)amino}butanoic acid] | 8.18 | 0.36 | 28.3 | Negative | 16 | Negative |
| CCOC(=O)COc1ccc(CN(Cc2ncc[nH]2)Cc2nccn2CCCN2CCC3(CCN(C4CCCCC4)CC3)C2)cc1 [Example 40(12), Ethyl (4-{[({1-[3-(8-cyclohexyl-2,8-diazaspiro[4.5]deca-2-yl)propyl]-1H-imidazol-2-yl}methyl)(1H-imidazol-2-ylmethyl)amino]methyl}phenoxy)acetate] | ≥ 8.52 | – | – | – | – | – |
| CCOC(=O)COc1cccc(CN(Cc2ncc[nH]2)Cc2nccn2CCCN2CCC3(CCN(C4CCCCC4)CC3)C2)c1 [Example 40(13), Ethyl (3-{[({1-[3-(8-cyclohexyl-2,8-diazaspiro[4.5]deca-2-yl)propyl]-1H-imidazol-2-yl}methyl)(1H-imidazol-2-ylmethyl)amino]methyl}phenoxy)acetate] | ≥ 8.52 | – | – | – | – | – |
| O=C(O)COc1ccc(CN(Cc2ncc[nH]2)Cc2nccn2CCCN2CCC3(CCN(C4CCCCC4)CC3)C2)cc1 [Example 41(6), (4-{[({1-[3-(8-cyclohexyl-2,8-diazaspiro[4.5]deca-2-yl)propyl]-1H-imidazol-2-yl}methyl)(1H-imidazol-2-ylmethyl)amino]methyl}phenoxy)acetic acid] | 8.36 | – | 72.9 | Negative | 16 | Negative |
| O=C(O)COc1cccc(CN(Cc2ncc[nH]2)Cc2nccn2CCCN2CCC3(CCN(C4CCCCC4)CC3)C2)c1 [Example 41(7), (3-{[({1-[3-(8-cyclohexyl-2,8-diazaspiro[4.5]deca-2-yl)propyl]-1H-imidazol-2-yl}methyl)(1H-imidazol-2-ylmethyl)amino]methyl}phenoxy)acetic acid] | 8.35 | – | 63.6 | Negative | 21 | Negative |
| CCOC(=O)COc1cccc(CN(Cc2ncc[nH]2)Cc2nccn2CCCN2CCC3(CCN(C(CC)CC)CC3)C2)c1 [Example 42(1), Ethyl [3-({[(1-{3-[8-(1-ethylpropyl)-2,8-diazaspiro[4.5]deca-2-yl]propyl}-1H-imidazol-2-yl)methyl] (1H-imidazol-2-ylmethyl)amino}methyl)phenoxy]acetate] | ≥ 8.52 | – | – | – | – | – |
| CCOC(=O)CCc1ccc(CN(Cc2ncc[nH]2)Cc2nccn2CCCN2CCC3(CCN(C(CC)CC)CC3)C2)s1 [Example 42(4), Ethyl 3-[5-({[(1-{3-[8-(1-ethylpropyl)-2,8-diazaspiro[4.5]deca-2-yl]propyl}-1H-imidazol-2-yl)methyl](1H-imidazol-2-ylmethyl)amino}methyl)-2-thienyl]propanoate] | 8.36 | – | – | – | – | – |
| CCOC(=O)COc1ccc(CN(Cc2ncc[nH]2)Cc2nccn2CCCN2CCC3(CCN(C(CC)CC)CC3)C2)cc1 [Example 42, Ethyl [4-({[(1-{3-[8-(1-ethylpropyl)-2,8-diazaspiro[4.5]deca-2-yl]propyl}-1H-imidazol-2-yl)methyl] (1H-imidazol-2-ylmethyl)amino}methyl)phenoxy]acetate] | 8.52 | – | – | – | – | – |
| CCC(CC)N1CCC2(CCN(CCCn3ccnc3CN(Cc3cccc(OCC(=O)O)c3)Cc3ncc[nH]3)C2)CC1 [Example 43(1), [3-({[(1-{3-[8-(1-ethylpropyl)-2,8-diazaspiro[4.5]deca-2-yl]propyl}-1H-imidazol-2-yl)methyl](1H-imidazol-2-ylmethyl)amino}methyl)phenoxy]acetic acid] | 8.20 | 0.42 | 41.2 | Negative | 14 | Negative |
| CCC(CC)N1CCC2(CCN(CCCn3ccnc3CN(Cc3cccc(SCC(=O)O)c3)Cc3ncc[nH]3)C2)CC1 [Example 43(2), {[3-({[(1-{3-[8-(1-ethylpropyl)-2,8-diazaspiro[4.5]deca-2-yl]propyl}-1H-imidazol-2-yl)methyl](1H-imidazol-2-ylmethyl)amino}methyl)phenyl]thio}acetic acid] | 8.03 | – | – | – | – | – |
| CCC(CC)N1CCC2(CCN(CCCn3ccnc3CN(Cc3ccc4cc(OCC(=O)O)ccc4c3)Cc3ncc[nH]3)C2)CC1 [Example 43(3), {[6-({[(1-{3-[8-(1-ethylpropyl)-2,8-diazaspiro[4.5]deca-2-yl]propyl}-1H-imidazol-2-yl)methyl](1H-imidazol-2-ylmethyl)amino}methyl)-2-naphthyl]oxy}acetic acid] | 7.87 | – | – | – | – | – |
| CCOC(=O)CCCn1ccnc1CN(C)Cc1nccn1CCCN1CCC2(CCN(CC(C)C)CC2)C1 [Example 47(4), Ethyl 4-(2-{[({1-[3-(8-isobutyl-2,8-diazaspiro[4.5]deca-2-yl)propyl]-1H-imidazol-2-yl}methyl)(methyl)amino]methyl}-1H-imidazol-1-yl)butanoate] | 8.37 | – | – | – | – | – |
